# Measurements from PMC7544787, “One-step purification of two novel thermotolerant β-1,4-glucosidases from a newly isolated strain of Fusarium chlamydosporum HML278 and their characterization” (AMB Express, 2020).
# System: T1, β-glucosidase purified from F. chlamydosporum HML278 (BG FH1 / BG FH2, not told which)
# T1 construct: native secreted enzyme from solid-state fermentation; native PAGE recovery and Sephacryl S-200; 93 kDa and 52 kDa (SDS-PAGE), single subunit
# Experiment: initial rates, Lineweaver-Burk
# Assay type: biochemical, Fusarium chlamydosporum
# Details: pH 4.8, 30 °C; one value given, not told whether BG FH1 or BG FH2
# Description: initial rates, Lineweaver-Burk on β-glucosidase purified from F. chlamydosporum HML278 (BG FH1 / BG FH2, not told which) | By using pNPG as a substrate, it was shown that the Km and Vmax values
compound,measurement,value
O=[N+]([O-])c1ccc(O[C@@H]2O[C@H](CO)[C@@H](O)[C@H](O)[C@H]2O)cc1 [pNPG],Km,2.76 mg/mL
